Measured values reported in PubChem BioAssay (NCI).
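GI50: concentration for 50% inhibition of growth. TGI: concentration producing complete growth inhibition.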

Legend:
Assay in all cases: NCI anticancer screen, dose series, 384-well format
[1] = system: SN12C renal
[2] = system: SNB-19 CNS
[3] = system: SF-295 CNS
[4] = system: NCI-H460 NSCLC
[5] = system: SK-OV-3 ovarian
[6] = system: KM12 colon
[7] = system: MOLT-4 leukemia
[8] = system: SW-620 colon
[9] = system: NCI-H226 lung
[10] = system: A498 renal
[11] = system: UO-31 renal
[12] = system: MALME-3M melanoma
[13] = system: TK-10 renal
[14] = system: U251 glioblastoma
[15] = system: SK-MEL-5 melanoma
[16] = system: MCF7 breast
[17] = system: MDA-MB-435 melanoma
[18] = system: IGROV1 ovarian
[19] = system: HS 578T breast
[20] = system: NCI/ADR-RES ovarian
[21] = system: EKVX NSCLC
[22] = system: SF-539 CNS
[23] = system: UACC-257 melanoma
[24] = system: DU-145 prostate
[25] = system: SF-268 CNS
[26] = system: PC-3 prostate
[27] = system: HT29 colon
[28] = system: K-562 leukemia
[29] = system: CAKI-1 renal
[30] = system: BT-549 breast
[31] = system: M14 melanoma
[32] = system: RPMI-8226 leukemia
[33] = system: RXF 393 renal
[34] = system: UACC-62 melanoma
[35] = system: OVCAR-5 ovarian
[36] = system: SNB-75 CNS
[37] = system: HL-60(TB) leukemia
[38] = system: LOX IMVI melanoma
[39] = system: HCC-2998 colon
[40] = system: HOP-62 NSCLC
[41] = system: ACHN renal
[42] = system: SK-MEL-28 melanoma
[43] = system: HCT-116 colon
[44] = system: NCI-H23 lung
[45] = system: HOP-92 NSCLC
[46] = system: MDA-MB-468 breast
[47] = system: NCI-H522 lung
[48] = system: 786-0 renal
[49] = system: T-47D breast
[50] = system: HCT-15 colon
[51] = system: NCI-H322M lung
[52] = system: OVCAR-4 ovarian
[53] = system: MDA-MB-231 breast
[54] = system: OVCAR-8 ovarian

Work on `CCn1cc(-c2ccnc3[nH]c(-c4cccc(CN(C)C)c4)cc23)c(-c2ccc(NC(=O)N(C)C)cc2)n1` yielded a GI50 [1] of 344 nM, a TGI [1] of 3800 nM and a GI50 [2] of 2410 nM. For the same compound, the TGI [2] was 14200 nM, the GI50 [3] was 1910 nM and the TGI [3] was 10000 nM. For the same compound, the GI50 [4] was < 10 nM, the TGI [4] was 1340 nM and the GI50 [5] was 1010 nM. For the same compound, the TGI [5] was 3410 nM, the GI50 [6] was 543 nM and the TGI [6] was 2980 nM. For the same compound, the GI50 [7] was < 10 nM, the GI50 [8] was 750 nM and the TGI [8] was 2350 nM. For the same compound, the GI50 [9] was 186 nM, the TGI [9] was 1730 nM and the GI50 [10] was 1180 nM. For the same compound, the TGI [10] was 9520 nM, the GI50 [11] was 2670 nM and the TGI [11] was 12000 nM. The GI50 [12] was 1510 nM, the TGI [12] was 3340 nM and the GI50 [13] was 2610 nM. The TGI [13] was 11600 nM, the GI50 [14] was 1350 nM and the TGI [14] was 2830 nM. For the same compound, the GI50 [15] was 1340 nM, the TGI [15] was 2890 nM and the GI50 [16] was 843 nM. For the same compound, the TGI [16] was 7150 nM, the GI50 [17] was 1680 nM and the TGI [17] was 5340 nM. It also gave a GI50 [18] of 1530 nM, a TGI [18] of 10400 nM and a GI50 [19] of 1250 nM. For the same compound, the TGI [19] was 3170 nM, the GI50 [20] was 17600 nM and the TGI [20] was 42400 nM. It also gave a GI50 [21] of 1110 nM, a TGI [21] of 4860 nM and a GI50 [22] of 327 nM. The TGI [22] was 2040 nM, the GI50 [23] was 1360 nM and the TGI [23] was 2710 nM. The GI50 [24] was 2710 nM, the TGI [24] was 14600 nM and the GI50 [25] was < 10 nM. It also gave a TGI [25] of 192 nM, a GI50 [26] of 1680 nM and a TGI [26] of 7380 nM. The GI50 [27] was 1000 nM, the TGI [27] was 2310 nM and the GI50 [28] was 1090 nM. It also gave a TGI [28] of 2420 nM, a GI50 [29] of 246 nM and a TGI [29] of 1940 nM. It also gave a GI50 [30] of 293 nM, a TGI [30] of 1770 nM and a GI50 [31] of 1270 nM. For the same compound, the TGI [31] was 3940 nM, the GI50 [32] was < 10 nM and the TGI [32] was 1430 nM. The GI50 [33] was 45.4 nM, the TGI [33] was 2740 nM and the GI50 [34] was 755 nM. The TGI [34] was 4340 nM, the GI50 [35] was 1680 nM and the TGI [35] was 4910 nM. The GI50 [36] was 483 nM, the TGI [36] was 2220 nM and the GI50 [37] was < 10 nM. For the same compound, the TGI [37] was 1370 nM, the GI50 [38] was 422 nM and the TGI [38] was 1920 nM. For the same compound, the GI50 [39] was 1690 nM, the TGI [39] was 4200 nM and the GI50 [40] was 516 nM. For the same compound, the TGI [40] was 7570 nM, the GI50 [41] was 2230 nM and the TGI [41] was 10700 nM. The GI50 [42] was 1700 nM, the TGI [42] was 4760 nM and the GI50 [43] was 158 nM. The TGI [43] was 1940 nM, the GI50 [44] was 403 nM and the TGI [44] was 2290 nM. The GI50 [45] was 449 nM, the TGI [45] was 2720 nM and the GI50 [46] was < 10 nM. It also gave a GI50 [47] of 115 nM, a TGI [47] of 1540 nM and a GI50 [48] of 1450 nM. It also gave a TGI [48] of 5230 nM, a GI50 [49] of 1420 nM and a TGI [49] of 9450 nM. The GI50 [50] was 1940 nM, the TGI [50] was 9960 nM and the GI50 [51] was 3810 nM. It also gave a TGI [51] of 15600 nM, a GI50 [52] of 2260 nM and a TGI [52] of 13900 nM. It also gave a GI50 [53] of 1320 nM, a TGI [53] of 7090 nM and a GI50 [54] of 1620 nM. The TGI [54] was 7510 nM.
